SMILES strings stand for the structures. ≈ marks a conversion by molar mass, not a printed value. Calls of active or inactive are those of the source. The rule behind the calls is not given here.

Data set [1] deals with Mycobacterium tuberculosis. Put plainly: Antitubercular activity against Mycobacterium tuberculosis H37Rv (ATCC 25618) incubated for […] by MABA assay. The class given is functional. (Alamar Blue is a resazurin reagent that responds to reducing activity.)
Data set [2] concerns the target T1, Decaprenylphosphoryl-beta-D-ribose oxidase (Mycobacterium tuberculosis (strain ATCC 25618 / H37Rv)) (UniProt P9WJF1).
T1 sequence (whole entry): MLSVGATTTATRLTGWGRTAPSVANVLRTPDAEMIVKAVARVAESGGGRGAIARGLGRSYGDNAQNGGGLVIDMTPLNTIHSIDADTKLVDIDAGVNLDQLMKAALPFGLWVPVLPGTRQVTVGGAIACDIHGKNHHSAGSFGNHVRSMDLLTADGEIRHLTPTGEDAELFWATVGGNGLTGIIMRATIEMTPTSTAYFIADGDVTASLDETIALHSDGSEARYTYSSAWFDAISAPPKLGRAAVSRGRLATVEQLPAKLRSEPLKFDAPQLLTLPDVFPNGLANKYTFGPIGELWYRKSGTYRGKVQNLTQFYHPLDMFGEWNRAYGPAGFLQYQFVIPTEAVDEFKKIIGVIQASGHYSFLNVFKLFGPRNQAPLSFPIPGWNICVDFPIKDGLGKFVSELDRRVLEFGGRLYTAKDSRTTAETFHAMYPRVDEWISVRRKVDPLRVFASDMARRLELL
Put plainly: Time-dependent covalent inhibition of recombinant Mycobacterium tuberculosis DprE1 expressed in Escherichia coli by Amplex Red/peroxidase coupled assay.

Data set [3] in a line: Metabolic stability in NADPH-fortified human liver microsomes assessed as CYP450-mediated stability incubated for 120 mins by LC/MS analysis. In kind it is ADME, Microsome. The settings on record: 2 h. Background: Microsomes from liver hold many membrane-bound enzymes, among them those of drug oxidation.
The nature of data set [4]: Metabolic stability in NADPH-fortified mouse liver microsomes assessed as CYP450-mediated stability incubated for 120 mins by LC/MS analysis. In kind it is ADME, Microsome. As to conditions: 2 h.

The MIC is the least concentration at which growth counts as inhibited. Read a high MIC as weaker potency. `CN(CC#CCN1CCS(=O)(=O)CC1)c1nc(=O)c2cc(C(F)(F)F)cc([N+](=O)[O-])c2s1`: it took 0.867 µM (≈ 0.425 µg/mL) to inhibit growth in data set [1] (MIC). This counts as sub-micromolar.

In data set [1], `CN(C/C=C/C1CCCC1)c1nc(=O)c2cc(C(F)(F)F)cc([N+](=O)[O-])c2s1` displayed a minimal inhibitory concentration (MIC) of 0.002 µM (≈ 0.000827 µg/mL).

With `CN(CC#CCN1CCCCC1)c1nc(=O)c2cc(C(F)(F)F)cc([N+](=O)[O-])c2s1`, in data set [1], the minimal inhibitory concentration (MIC) came out at 0.127 µM (≈ 0.0559 µg/mL).

In turn, `CN(C/C=C\C1CC1)c1nc(=O)c2cc(C(F)(F)F)cc([N+](=O)[O-])c2s1` came in with a minimum inhibitory concentration (MIC) in data set [1] of 0.042 µM (≈ 0.0162 µg/mL).

`CN(CC#Cc1ccc(F)c(F)c1)c1nc(=O)c2cc(C(F)(F)F)cc([N+](=O)[O-])c2s1`: in data set [1], the minimal inhibitory concentration (MIC) was 0.013 µM (≈ 0.00592 µg/mL). Compared with the last compound, the MIC is about 3.2-fold lower.

As for `CN(CC#Cc1ccc2c(c1)OCO2)c1nc(=O)c2cc(C(F)(F)F)cc([N+](=O)[O-])c2s1`, the MIC in data set [1] is 0.145 µM (≈ 0.0672 µg/mL).

Regarding `CN(CC#Cc1cccc(C#N)c1)c1nc(=O)c2cc(C(F)(F)F)cc([N+](=O)[O-])c2s1`, in data set [1], the MIC is 0.029 µM (≈ 0.0129 µg/mL).

In data set [1], `CN(CC#Cc1cccs1)c1nc(=O)c2cc(C(F)(F)F)cc([N+](=O)[O-])c2s1` had a minimal inhibitory concentration (MIC) of 0.014 µM (≈ 0.00596 µg/mL). Moreover, in data set [2], the TDI result is “Active”. Further, the Stability result in data set [3] and in data set [4] was “Stable” each time.

In the case of `CN(CC#CCc1ccccc1)c1nc(=O)c2cc(C(F)(F)F)cc([N+](=O)[O-])c2s1`, in data set [1], it took 0.053 µM (≈ 0.023 µg/mL) to inhibit growth (MIC). Besides, in data set [2], the TDI result is “Active”.

In turn, `CN(C/C=C/C1CC1)c1nc(=O)c2cc(C(F)(F)F)cc([N+](=O)[O-])c2s1` gave an MIC in data set [1] of 0.023 µM (≈ 0.00886 µg/mL).

Take `CN(C/C=C\C1CCCC1)c1nc(=O)c2cc(C(F)(F)F)cc([N+](=O)[O-])c2s1`: it took 0.01 µM (≈ 0.00413 µg/mL) to inhibit growth in data set [1] (MIC).

As to `CN(CC#Cc1ccc2c(c1)OCCO2)c1nc(=O)c2cc(C(F)(F)F)cc([N+](=O)[O-])c2s1`, the MIC in data set [1] came to 0.092 µM (≈ 0.0439 µg/mL).

Turning to `CN1CCN(CC#CCN(C)c2nc(=O)c3cc(C(F)(F)F)cc([N+](=O)[O-])c3s2)CC1`, in data set [1], the lowest concentration to inhibit growth (MIC) was 1.92 µM (≈ 0.876 µg/mL).

As for `CN(C/C=C/c1ccccc1)c1nc(=O)c2cc(C(F)(F)F)cc([N+](=O)[O-])c2s1`, in data set [1], inhibition of growth (MIC) required 0.024 µM (≈ 0.0101 µg/mL). Further, the TDI entry in data set [2] was “Active”.

Take `CN(Cc1nnc(-c2ccccc2)o1)c1nc(=O)c2cc(S(C)(=O)=O)cc([N+](=O)[O-])c2s1`: the minimum inhibitory concentration (MIC) in data set [1] worked out at 0.03 µM (≈ 0.0142 µg/mL).

Take `CN(CC#CC(C)(C)C)c1nc(=O)c2cc(C(F)(F)F)cc([N+](=O)[O-])c2s1`: inhibition of growth in data set [1] (MIC) required 0.023 µM (≈ 0.00919 µg/mL).

`COc1cccc(C#CCN(C)c2nc(=O)c3cc(C(F)(F)F)cc([N+](=O)[O-])c3s2)c1` showed an MIC in data set [1] of 0.093 µM (≈ 0.0418 µg/mL).

`CN(CC#CCN1CC2(COC2)C1)c1nc(=O)c2cc(C(F)(F)F)cc([N+](=O)[O-])c2s1`: in data set [1], 0.423 µM (≈ 0.192 µg/mL) was the least that counted as inhibitory (MIC).

On to `CN(C/C=C/C1CCCCC1)c1nc(=O)c2cc(C(F)(F)F)cc([N+](=O)[O-])c2s1`, for which the MIC in data set [1] stood at 0.002 µM (≈ 0.000855 µg/mL). Compared with the last compound, the MIC is about 210-fold lower.

`CN(CC#CC1CCCC1)c1nc(=O)c2cc(C(F)(F)F)cc([N+](=O)[O-])c2s1` registered a minimal inhibitory concentration (MIC) in data set [1] of 0.005 µM (≈ 0.00206 µg/mL).

Consider `CN1CCC(O)(C#CCN(C)c2nc(=O)c3cc(C(F)(F)F)cc([N+](=O)[O-])c3s2)CC1`, for which, in data set [1], the MIC was found to be 16.9 µM (≈ 7.72 µg/mL).

For the compound `CN(CC#CCN1CCSCC1)c1nc(=O)c2cc(C(F)(F)F)cc([N+](=O)[O-])c2s1`, 0.028 µM (≈ 0.0128 µg/mL) was the least that counted as inhibitory in data set [1] (MIC).

For the compound `CN(CC#Cc1ccccc1F)c1nc(=O)c2cc(C(F)(F)F)cc([N+](=O)[O-])c2s1`, the MIC in data set [1] amounted to 0.011 µM (≈ 0.00481 µg/mL).

In turn, `CN(C)CCc1ccc(C#CCN(C)c2nc(=O)c3cc(C(F)(F)F)cc([N+](=O)[O-])c3s2)cc1` had a minimal inhibitory concentration (MIC) in data set [1] of 1.01 µM (≈ 0.495 µg/mL).

`CN(CC#Cc1ccc(F)cc1)c1nc(=O)c2cc(C(F)(F)F)cc([N+](=O)[O-])c2s1` had an MIC in data set [1] of 0.013 µM (≈ 0.00569 µg/mL). Against the preceding compound, the MIC is about 78-fold lower.

With `C#CCN(C)c1nc(=O)c2cc(C(F)(F)F)cc([N+](=O)[O-])c2s1`, in data set [1], the minimal inhibitory concentration (MIC) came to 1.4 µM (≈ 0.479 µg/mL). This MIC lies about 110-fold higher than the previous one.

The compound `CN(CC#CCN1CC[S+]([O-])CC1)c1nc(=O)c2cc(C(F)(F)F)cc([N+](=O)[O-])c2s1` yielded an MIC in data set [1] of 1.05 µM (≈ 0.498 µg/mL).

As to `CN(CC#Cc1cncs1)c1nc(=O)c2cc(C(F)(F)F)cc([N+](=O)[O-])c2s1`, the minimum inhibitory concentration (MIC) in data set [1] was 0.129 µM (≈ 0.055 µg/mL).

In data set [1], `CN(CC#Cc1ccsc1)c1nc(=O)c2cc(C(F)(F)F)cc([N+](=O)[O-])c2s1` registered a minimum inhibitory concentration (MIC) of 0.014 µM (≈ 0.00596 µg/mL). The Stability entry in data set [3] and in data set [4] was “Stable” throughout.

Consider `CN(C)Cc1ccc(C#CCN(C)c2nc(=O)c3cc(C(F)(F)F)cc([N+](=O)[O-])c3s2)cc1`, for which the lowest concentration to inhibit growth in data set [1] (MIC) was 0.47 µM (≈ 0.224 µg/mL).

On to `CN(CC#Cc1ccc(F)cc1F)c1nc(=O)c2cc(C(F)(F)F)cc([N+](=O)[O-])c2s1`, for which, in data set [1], the lowest concentration to inhibit growth (MIC) was 0.007 µM (≈ 0.00319 µg/mL).

Consider `CN(CC#CCN1CCCC1)c1nc(=O)c2cc(C(F)(F)F)cc([N+](=O)[O-])c2s1`, for which the MIC in data set [1] turned out to be 0.378 µM (≈ 0.161 µg/mL).

Regarding `CN(C/C=C\c1ccccc1)c1nc(=O)c2cc(C(F)(F)F)cc([N+](=O)[O-])c2s1`, the minimum inhibitory concentration (MIC) in data set [1] stood at 0.045 µM (≈ 0.019 µg/mL). Also, the TDI result in data set [2] was “Active”.

On to `CN(CC#CCN1CCSC1)c1nc(=O)c2cc(C(F)(F)F)cc([N+](=O)[O-])c2s1`, for which the MIC in data set [1] is 0.029 µM (≈ 0.0129 µg/mL).

The compound `CN(Cc1cn(-c2ccccc2)nn1)c1nc(=O)c2cc(S(C)(=O)=O)cc([N+](=O)[O-])c2s1` returned a minimal inhibitory concentration (MIC) in data set [1] of 0.047 µM (≈ 0.0222 µg/mL).

Take `CN(C/C=C\C1CCCCC1)c1nc(=O)c2cc(C(F)(F)F)cc([N+](=O)[O-])c2s1`: in data set [1], 0.009 µM (≈ 0.00385 µg/mL) was the least that counted as inhibitory (MIC).

For `CN(CC#CC(O)CN1CCCCC1)c1nc(=O)c2cc(C(F)(F)F)cc([N+](=O)[O-])c2s1` (configuration not stated), the MIC in data set [1] stood at 1.05 µM (≈ 0.493 µg/mL).

Turning to `CN(CC#Cc1cnsc1)c1nc(=O)c2cc(C(F)(F)F)cc([N+](=O)[O-])c2s1`, in data set [1], the minimal inhibitory concentration (MIC) came out at 0.03 µM (≈ 0.0128 µg/mL).

With `CN(CC#CCN1CCOCC1)c1nc(=O)c2cc(C(F)(F)F)cc([N+](=O)[O-])c2s1`, in data set [1], the minimum inhibitory concentration (MIC) turned out to be 0.106 µM (≈ 0.0469 µg/mL).

The values are drawn from ChEMBL document CHEMBL5528009, “Benzothiozinone derivatives with anti-tubercular Activity-Further side chain investigation” (Eur J Med Chem, 2024).
